# Test results as given in ChEMBL document CHEMBL3046024, “Ligand-based in silico 3D-QSAR study of PPAR- agonists” (Med Chem Res, 2011).
# pEC50: −log10 of the molar value.
# Molecular target: T1, Peroxisome proliferator-activated receptor gamma (Homo sapiens, UniProt P37231)
# T1 sequence (P37231 whole entry): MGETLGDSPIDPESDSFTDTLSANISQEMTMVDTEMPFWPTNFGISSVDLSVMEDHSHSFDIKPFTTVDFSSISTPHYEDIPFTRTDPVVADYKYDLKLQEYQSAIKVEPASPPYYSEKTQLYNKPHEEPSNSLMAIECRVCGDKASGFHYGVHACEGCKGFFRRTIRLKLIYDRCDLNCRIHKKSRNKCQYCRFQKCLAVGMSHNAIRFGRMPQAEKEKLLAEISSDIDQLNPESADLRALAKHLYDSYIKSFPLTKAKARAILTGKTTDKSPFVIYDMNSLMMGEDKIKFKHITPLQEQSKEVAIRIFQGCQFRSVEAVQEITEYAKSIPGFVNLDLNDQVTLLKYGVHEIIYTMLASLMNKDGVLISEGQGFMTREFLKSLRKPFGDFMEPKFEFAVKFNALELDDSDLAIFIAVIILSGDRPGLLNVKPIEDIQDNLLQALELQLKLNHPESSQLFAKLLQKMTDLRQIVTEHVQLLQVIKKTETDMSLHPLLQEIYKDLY
# Assay: Transactivation activity at Homo sapiens (human) PPARgamma
row,Compound,pEC50
1,CCCc1cc(Oc2ccccc2)ccc1OCCCCOc1ccc(C2SC(=O)NC2=O)cc1 (stereo not given),6.00
2,O=C1NC(=O)C(Cc2ccc3c(c2)CC[C@H](Cc2ccccc2)O3)S1 (stereo not given in full) [ENGLITAZONE],6.00

# Molecular target: T1, Peroxisome proliferator-activated receptor gamma
# Assay: Transactivation activity at PPARgamma (unknown origin)
row,Compound,pEC50
1,CCOC(=O)CN1C(=O)S/C(=C\c2ccc(Cl)cc2)C1=O,5.10
2,CCOC(=O)CN1C(=O)SC(Cc2ccc(N)cc2)C1=O (stereo not given),5.10
3,CCOC(=O)CN1C(=O)SC(Cc2ccc(F)cc2)C1=O (stereo not given),5.00
4,C/C(=N\OCCOc1ccc(CC2SC(=O)NC2=O)cc1)c1ccc(-c2ccccc2)cc1 (stereo not given),< 6.40
5,COC(=O)CN1C(=O)S/C(=C\c2ccc(O)cc2)C1=O,5.00
6,CCOC(=O)CN1C(=O)SC(Cc2ccc(C(F)(F)F)cc2)C1=O (stereo not given),5.05
7,CCOC(=O)CN1C(=O)S/C(=C\c2ccc(OC)cc2)C1=O,5.15
8,CCOC(=O)CN1C(=O)S/C(=C\c2ccc(C)cc2)C1=O,5.05
9,CCOC(=O)CN1C(=O)SC(Cc2ccc(OCCBr)cc2)C1=O (stereo not given),4.92
10,CCOC(=O)CN1C(=O)S/C(=C\c2ccc(C(F)(F)F)cc2)C1=O,5.00
11,CCOC(=O)CN1C(=O)S/C(=C\c2cccc([N+](=O)[O-])c2)C1=O,4.96
12,COC(=O)CN1C(=O)SC(Cc2ccc(O)cc2)C1=O (stereo not given),5.05
13,CCOC(=O)CN1C(=O)S/C(=C\c2ccc(OCCBr)cc2)C1=O,4.96
